Measurements from ChEMBL document CHEMBL1201862, “PubChem BioAssay data set” (2004).
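Following 48 hours of exposure in 96-well plates, responses at five concentrations were used to interpolate endpoints linearly. GI50: concentration for 50% inhibition of growth.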 Activity calls are given as the source filed them. Rule as the data show it: active = GI50 up to about 1.1 µM and inactive = higher.

Tests used:
Assay in all cases: NCI anticancer screen, dose series, 48 h
HL-60 = test system: HL-60
SW-620 = test system: SW-620
LXFL 529 = test system: LXFL 529
DLD-1 = test system: DLD-1
CCRF-CEM = test system: CCRF-CEM
SNB-78 = test system: SNB-78
HOP-62 = test system: HOP-62
OVCAR-4 = test system: OVCAR-4
NCI-H23 = test system: NCI-H23
Malme-3M = test system: Malme-3M
COLO 205 = test system: COLO 205
XF498 = test system: XF498
OVCAR-5 = test system: OVCAR-5
M14 = test system: M14
SNB-19 = test system: SNB-19
HOP-92 = test system: HOP-92
HCC 2998 = test system: HCC 2998
786-0 = test system: 786-0
SF-295 = test system: SF-295
SK-MEL-2 = test system: SK-MEL-2
IGROV-1 = test system: IGROV-1
HCT-15 = test system: HCT-15
SK-OV-3 = test system: SK-OV-3
SN12C = test system: SN12C
K562 = test system: K562
SK-MEL-5 = test system: SK-MEL-5
KM-20L2 = test system: KM-20L2
KM12 = test system: KM12
OVCAR-3 = test system: OVCAR-3
HCT-116 = test system: HCT-116
NCI-H460 = test system: NCI-H460
HOP-18 = test system: HOP-18
EKVX = test system: EKVX
OVCAR-8 = test system: OVCAR-8
MOLT-4 = test system: MOLT-4
U-251 = test system: U-251
LOX IMVI = test system: LOX IMVI
A549 = test system: A549
UACC-257 = test system: UACC-257
M19-MEL = test system: M19-MEL
UACC-62 = test system: UACC-62
NCI-H226 = test system: NCI-H226
A498 = test system: A498
RXF 393 = test system: RXF 393
ACHN = test system: ACHN
DMS-114 = test system: DMS-114
SNB-75 = test system: SNB-75
TK-10 = test system: TK-10
HT-29 = test system: HT-29
UO-31 = test system: UO-31
SF-539 = test system: SF-539
RPMI-8226 = test system: RPMI-8226
CAKI-1 = test system: CAKI-1
SF-268 = test system: SF-268
NCI-H522 = test system: NCI-H522
DMS-273 = test system: DMS-273
SR = test system: SR
SK-MEL-28 = test system: SK-MEL-28

Question: CSc1nc(NC2OC(COC(C)=O)C(OC(C)=O)C(OC(C)=O)C2OC(C)=O)c2c(OC(C)=O)c(C)c(=O)oc2n1 (centres undefined) was tested. Which GI50 (HL-60) did it give?
Answer: > 100 µM (inactive)

Question: What about the GI50 (SW-620) of the same compound?
Answer: > 100 µM (inactive)

Question: And the GI50 (LXFL 529)?
Answer: > 100 µM (inactive)

Question: What about the GI50 (DLD-1) of the same compound?
Answer: > 100 µM (inactive)

Question: And the GI50 (CCRF-CEM)?
Answer: > 100 µM (inactive)

Question: And the GI50 (SNB-78)?
Answer: > 100 µM (inactive)

Question: What about the GI50 (HOP-62) of the same compound?
Answer: > 100 µM (inactive)

Question: And the GI50 (OVCAR-4)?
Answer: > 100 µM (inactive)

Question: And the GI50 (NCI-H23)?
Answer: > 100 µM (inactive)

Question: What about the GI50 (Malme-3M) of the same compound?
Answer: > 100 µM (inactive)

Question: What about the GI50 (COLO 205) of the same compound?
Answer: > 100 µM (inactive)

Question: What about the GI50 (XF498) of the same compound?
Answer: > 100 µM (inactive)

Question: And the GI50 (OVCAR-5)?
Answer: > 100 µM (inactive)

Question: And the GI50 (M14)?
Answer: > 100 µM (inactive)

Question: What about the GI50 (SNB-19) of the same compound?
Answer: > 100 µM (inactive)

Question: What about the GI50 (HOP-92) of the same compound?
Answer: > 100 µM (inactive)

Question: What about the GI50 (HCC 2998) of the same compound?
Answer: > 100 µM (inactive)

Question: What about the GI50 (786-0) of the same compound?
Answer: > 100 µM (inactive)

Question: What about the GI50 (SF-295) of the same compound?
Answer: > 100 µM (inactive)

Question: What about the GI50 (SK-MEL-2) of the same compound?
Answer: > 100 µM (inactive)

Question: What about the GI50 (IGROV-1) of the same compound?
Answer: > 100 µM (inactive)

Question: And the GI50 (HCT-15)?
Answer: > 100 µM

Question: What about the GI50 (SK-OV-3) of the same compound?
Answer: > 100 µM (inactive)

Question: And the GI50 (SN12C)?
Answer: > 100 µM (inactive)

Question: And the GI50 (K562)?
Answer: > 100 µM (inactive)

Question: What about the GI50 (SK-MEL-5) of the same compound?
Answer: > 100 µM (inactive)

Question: And the GI50 (KM-20L2)?
Answer: > 100 µM (inactive)

Question: What about the GI50 (KM12) of the same compound?
Answer: > 100 µM (inactive)

Question: What about the GI50 (OVCAR-3) of the same compound?
Answer: > 100 µM (inactive)

Question: And the GI50 (HCT-116)?
Answer: > 100 µM (inactive)

Question: And the GI50 (NCI-H460)?
Answer: > 100 µM (inactive)

Question: And the GI50 (HOP-18)?
Answer: > 100 µM (inactive)

Question: What about the GI50 (EKVX) of the same compound?
Answer: > 100 µM (inactive)

Question: And the GI50 (OVCAR-8)?
Answer: > 100 µM (inactive)

Question: And the GI50 (MOLT-4)?
Answer: > 100 µM (inactive)

Question: What about the GI50 (U-251) of the same compound?
Answer: > 100 µM (inactive)

Question: And the GI50 (LOX IMVI)?
Answer: > 100 µM (inactive)

Question: And the GI50 (A549)?
Answer: > 100 µM (inactive)

Question: What about the GI50 (UACC-257) of the same compound?
Answer: > 100 µM (inactive)

Question: What about the GI50 (M19-MEL) of the same compound?
Answer: > 100 µM (inactive)

Question: And the GI50 (UACC-62)?
Answer: > 100 µM (inactive)

Question: And the GI50 (NCI-H226)?
Answer: > 100 µM (inactive)

Question: What about the GI50 (A498) of the same compound?
Answer: > 100 µM (inactive)

Question: And the GI50 (RXF 393)?
Answer: > 100 µM (inactive)

Question: And the GI50 (ACHN)?
Answer: > 100 µM (inactive)

Question: And the GI50 (DMS-114)?
Answer: > 100 µM (inactive)

Question: And the GI50 (SNB-75)?
Answer: > 100 µM (inactive)

Question: And the GI50 (TK-10)?
Answer: > 100 µM (inactive)

Question: What about the GI50 (HT-29) of the same compound?
Answer: > 100 µM (inactive)

Question: What about the GI50 (UO-31) of the same compound?
Answer: > 100 µM (inactive)

Question: And the GI50 (SF-539)?
Answer: > 100 µM (inactive)

Question: And the GI50 (RPMI-8226)?
Answer: > 100 µM (inactive)

Question: What about the GI50 (CAKI-1) of the same compound?
Answer: > 100 µM (inactive)

Question: What does the source list for C=CCOCCC(CC=C)C(=O)CC(=O)OC (centres undefined)?
Answer: GI50 (SF-268): > 100 µM (inactive); GI50 (HL-60): 13.5 µM (inactive); GI50 (NCI-H522): > 100 µM (inactive); GI50 (SW-620): > 100 µM (inactive); GI50 (DLD-1): > 100 µM (inactive); GI50 (CCRF-CEM): 4.23 µM (inactive); GI50 (HOP-62): > 100 µM (inactive); GI50 (OVCAR-4): > 100 µM (inactive); GI50 (NCI-H23): > 100 µM (inactive); GI50 (Malme-3M): > 100 µM (inactive); GI50 (XF498): > 100 µM (inactive); GI50 (OVCAR-5): > 100 µM (inactive); GI50 (M14): > 100 µM (inactive); GI50 (SNB-19): > 100 µM (inactive); GI50 (HOP-92): 90.4 µM (inactive); GI50 (HCC 2998): > 100 µM (inactive); GI50 (SF-295): > 100 µM (inactive); GI50 (SK-MEL-2): > 100 µM (inactive); GI50 (IGROV-1): > 100 µM (inactive); GI50 (HCT-15): > 100 µM; GI50 (SK-OV-3): > 100 µM (inactive); GI50 (SN12C): > 100 µM (inactive); GI50 (K562): 19.3 µM (inactive); GI50 (SK-MEL-5): > 100 µM (inactive); GI50 (KM-20L2): > 100 µM (inactive); GI50 (DMS-273): 45.3 µM (inactive); GI50 (KM12): > 100 µM (inactive); GI50 (OVCAR-3): > 100 µM (inactive); GI50 (HCT-116): 45.6 µM (inactive); GI50 (NCI-H460): > 100 µM (inactive); GI50 (HOP-18): > 100 µM (inactive); GI50 (EKVX): > 100 µM (inactive); GI50 (OVCAR-8): > 100 µM (inactive); GI50 (MOLT-4): 28.5 µM (inactive); GI50 (U-251): > 100 µM (inactive); GI50 (LOX IMVI): 27.9 µM (inactive); GI50 (A549): > 100 µM (inactive); GI50 (UACC-257): > 100 µM (inactive); GI50 (UACC-62): 52.8 µM (inactive); GI50 (NCI-H226): > 100 µM (inactive); GI50 (A498): > 100 µM (inactive); GI50 (RXF 393): > 100 µM (inactive); GI50 (ACHN): > 100 µM (inactive); GI50 (SNB-75): 25.9 µM (inactive); GI50 (TK-10): > 100 µM (inactive); GI50 (HT-29): > 100 µM (inactive); GI50 (UO-31): > 100 µM (inactive); GI50 (SF-539): > 100 µM (inactive); GI50 (RPMI-8226): 25.3 µM (inactive); GI50 (SR): 3.56 µM (inactive); GI50 (SK-MEL-28): > 100 µM (inactive)
